Data taken from patent publication US20030055065A1, “Tricyclic amide and urea compounds useful for inhibition of G-protein function and for treatment of proliferative diseases” (priority 1993, published 2003).
Several values for one entry are separate records, joined by “and”; a condition that tells them apart may be missing. Equal entries are not always repeated. Where two headings read alike, the source gives them in different places.

Molecular target: T1, farnesyl protein transferase (FPT), partially purified from rat brain (Rattus norvegicus, UniProt Q02293+Q04631)
T1 construct: were partially purified from rat brain by ammonium sulfate fractionation followed by Q-Sepharose
Experiment: Inhibition of farnesyl protein transferase (transfer of [3H]farnesyl to Ras-CVLS)
Assay type: biochemical
Conditions: for IC50: read-out: FPT IC50
Experimental: 1. In vitro enzyme assays: Inhibition of farnesyl protein transferase and geranylgeranyl protein transferase.
Human farnesyl protein transferase was also expressed in E. coli, using cDNA clones encoding both the α and β subunits. […] Human farnesyl protein transferase was partially-purified from the soluble protein fraction of E. coli as described above. […] Two forms of val^12-Ha-Ras protein were prepared as substrates for these enzymes, differing in their carboxy terminal sequence. One form terminated in cysteine-valine-leucine-serine (Ras-CVLS) the other in cystein-valine-leucine-leucine (Ras-CVLL). Ras-CVLS is a substrate for the farnesyl protein transferase while Ras-CVLL is a substrate for geranylgeranyl protein transferase I. The cDNAs encoding these proteins were constructed so that the proteins contain an amino-terminal extension of 6 histidine residues. Both proteins were expressed in Escherichia coli and purified using metal chelate affinity chromatography. The radiolabelled isoprenyl pyrophosphate substrates, [^3H]farnesyl pyrophosphate and [3H]geranylgeranyl pyrophosphate, were purchased from DuPont/New England Nuclear.
The reaction was allowed to proceed for 30 minutes at room temperature and then stopped with 0.5 ml of 4% sodium dodecyl sulfate (SDS) followed by 0.5 ml of cold 30% trichloracetic acid (TCA). Samples were allowed to sit on ice for 45 minutes and precipitated Ras protein was then collected on GF/C filter paper mats using a Brandel cell harvester. […] Percent inhibition was calculated relative to the DMSO vehicle control.

[1] = Ras-CVLS farnesylation, partially purified rat brain FPT

T1 sequence (Q02293 whole entry, one chain of several): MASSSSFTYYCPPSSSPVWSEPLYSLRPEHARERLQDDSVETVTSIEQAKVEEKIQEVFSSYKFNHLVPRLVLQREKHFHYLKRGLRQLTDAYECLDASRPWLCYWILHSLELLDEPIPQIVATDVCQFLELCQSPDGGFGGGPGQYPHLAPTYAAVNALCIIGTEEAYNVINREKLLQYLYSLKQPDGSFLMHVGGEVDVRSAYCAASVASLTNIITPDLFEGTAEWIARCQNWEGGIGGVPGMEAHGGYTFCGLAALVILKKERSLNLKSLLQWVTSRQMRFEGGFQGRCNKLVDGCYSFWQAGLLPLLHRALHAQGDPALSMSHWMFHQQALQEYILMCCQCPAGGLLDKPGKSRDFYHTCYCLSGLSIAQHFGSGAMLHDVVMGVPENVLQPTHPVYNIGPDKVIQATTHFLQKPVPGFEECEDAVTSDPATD

| IC50 [1] | Structure (SMILES) | also measured |
| --- | --- | --- |
|  | O=C(c1cc[n+]([O-])cc1)N1CCC(=C2c3ccc(Cl)cc3CCc3ccc[n+]([O-])c32)CC1 [Example 131] | FPT inhibition (at 13.4 μM): 16% at 13.4 μM |
|  | CC(=O)N1CCC(=C2c3ccc(Cl)cc3CCc3c(C)cc[n+]([O-])c32)CC1 [Example 132] | FPT inhibition (at 15 μM): 22% at 15 μM |
|  | CC(=O)N1CCC(=C2c3ccc(Cl)cc3CCc3cc(C(C)(C)C)c[n+]([O-])c32)CC1 [Example 133] | FPT inhibition (at 14.1 μM): 16% at 14.1 μM |
| 7.7 µM | CC(=O)N1CCC(=C2c3ccc(Cl)cc3CCc3c(Cl)ccnc32)CC1 [Example 135] |  |
| 11.5 µM | COc1ccnc2c1CCc1cc(Cl)ccc1C2=C1CCN(C(C)=O)CC1 [Example 136] |  |
|  | CC(=O)N1CCC(=C2c3ccc(Cl)cc3CC(C)c3cccnc32)CC1 (centres unmarked) [Example 137] | FPT inhibition (at 16.3 μM): 15% at 16.3 μM |
|  | CC(=O)c1cnc2c(c1)CCc1cc(Cl)ccc1C2=C1CCN(C(C)=O)CC1 [Example 139] | FPT inhibition (at 15.2 μM): 37% at 15.2 μM |
| 15.7 µM | CC(=O)N1CCC(=C2c3ccccc3CCc3c2[nH]c2ccccc32)CC1 [Example 140] |  |
|  | CC(=O)N1CCC(C2c3cc4ccccc4cc3CCc3ccc[n+]([O-])c32)CC1 (centres unmarked) [Example 141] | FPT inhibition (at 50 μM): 29% at 50 μM |
| 35.4 µM | CC(=O)N1CCC(=C2c3ccncc3CCc3cc(Cl)ccc32)CC1 [Example 143] |  |
|  | CC(=O)N1CCC(=C2c3ccc(Cl)cc3CCc3ncccc32)CC1 [Example 144] | FPT inhibition (at 50 μM): 30% at 50 μM |
|  | O=C(c1cc[n+]([O-])cc1)N1CCC(=C2c3ccncc3CCc3cc(Cl)ccc32)CC1 [Example 144a] | FPT inhibition (at 46 μM): 47% at 46 μM |
| > 10 µM | COCC(=O)N1CCC(=C2c3ccc(F)cc3CCc3cccnc32)CC1 [Example 145] |  |
|  | O=C(c1cc[n+]([O-])cc1)N1CCC(=C2c3ccccc3CCc3cc(Cl)ccc32)CC1 [Example 146] | FPT inhibition (at 12 μM): 45% at 12 μM |
|  | CC(=O)N1CCC(=C2c3ccccc3CCc3cccnc32)CC1 [Example 147] | FPT inhibition (at 18.8 μM): 0% at 18.8 μM |
| 10.8 µM | CC(=O)N1CCN(C2c3ccc(Cl)cc3CCc3cccnc32)CC1C (centres unmarked) [Example 149] |  |
|  | CC(=O)N1CCC(C2c3ccc(Cl)cc3CCc3cccnc32)CC1 (centres unmarked) [Example 150] | FPT inhibition (at 16.9 μM): 38% at 16.9 μM |
| 15 µM | O=C(c1cc[n+]([O-])cc1)N1CCC(=C2c3ccccc3CCc3ccccc32)CC1 [Example 151] |  |
| 15 µM | O=C(c1ccc(=O)[nH]c1)N1CCC(=C2c3ccccc3CCc3ccccc32)CC1 [Example 152] |  |
| 29.6 µM | CC(=O)N1CCN(C2c3ccccc3CCc3ccccc32)CC1 [Example 153] |  |
| 7.4 µM | CC(C)(C)OC(=O)N1CCC(CC(=O)N2CCN(C3c4ccc(Cl)cc4CCc4cccnc43)CC2)CC1 (centres unmarked) [Example 193] |  |
| 4.3 µM | CC(=O)N1CCCC(C(=O)N2CCN(C3c4ccc(Cl)cc4CCc4cccnc43)CC2)C1 (centres unmarked) [Example 194] |  |

| IC50 [1] | Structure (SMILES) | also measured |
| --- | --- | --- |
| 6.8 µM | CN1CCCC(C(=O)N2CCN(C3c4ccc(Cl)cc4CCc4cccnc43)CC2)C1 (centres unmarked) [Example 195] |  |
|  | CC(C)(C)OC(=O)N1CCC(C(=O)N2CCN(C3c4ccc(Cl)cc4CCc4cccnc43)CC2)CC1 (centres unmarked) [Example 202] | FPT inhibition (at 11 μM): 20% @ |
| 3.1 µM | CC(=O)N1CCCC(CC(=O)N2CCN(C3c4ccc(Cl)cc4CCc4cccnc43)CC2)C1 (centres unmarked) [Example 205] |  |
|  | O=C(NCC(=O)N1CCN(C2c3ccc(Cl)cc3CCc3cccnc32)CC1)OCc1ccccc1 (centres unmarked) [Example 207] | FPT inhibition (at 12 μM): 40% @ |
| 7.93 µM | O=C(Cc1ccc(O)cc1)NCC(=O)N1CCN(C2c3ccc(Cl)cc3CCc3cccnc32)CC1 (centres unmarked) [Example 210] |  |
|  | O=C(N[C@@H](Cc1ccccc1)C(=O)N1CCN(C2c3ccc(Cl)cc3CCc3cccnc32)CC1)OCc1ccccc1 (some centres unmarked) [Example 213] | FPT inhibition (at 10 μM): 23% @ |
|  | CC(C)(C)OC(=O)N[C@@H](Cc1ccccc1)C(=O)N1CCN(C2c3ccc(Cl)cc3CCc3cccnc32)CC1 (some centres unmarked) [Example 214] | FPT inhibition (at 10 μM): 0% @ |
|  | NC(Cc1ccccc1)C(=O)N1CCN(C2c3ccc(Cl)cc3CCc3cccnc32)CC1 (centres unmarked) [Example 215] | FPT inhibition (at 13 μM): 30% @ |
|  | O=C([C@H](Cc1ccccc1)N1C(=O)c2ccccc2C1=O)N1CCN(C2c3ccc(Cl)cc3CCc3cccnc32)CC1 (some centres unmarked) [Example 216] | FPT inhibition (at 10 μM): 34% @ |
| 3.71 µM | O=C(Cc1csc2ccccc12)N1CCC(=C2c3ccc(Cl)cc3CCc3cccnc32)CC1 [Example 221] |  |
| 2.06 µM | O=C(Cc1ccncc1)N1CCC(=C2c3ccc(Cl)cc3CCc3ccc[n+]([O-])c32)CC1 [Example 230] |  |
| 6 µM | O=C(Cc1cc[n+]([O-])cc1)N1CCC(=C2c3ccc(Cl)cc3CCc3ccc[n+]([O-])c32)CC1 [Example 232] |  |
| 3.12 µM | O=C(Cc1cccnc1)N1CCC(=C2c3ccc(Cl)cc3CCc3cc(O)cnc32)CC1 [Example 240] |  |
| 7.2 µM | O=C(Cc1cccnc1)N1CCC(=C2c3ccc(Cl)cc3CCc3c(O)ccnc32)CC1 [Example 252] |  |
| 4.3 µM | O=C(Cc1cccnc1)N1CCC(=C2c3ccc(Cl)cc3CCc3c2ncc(Br)c3O)CC1 [Example 253] |  |
| 4.9 µM | C[S+]([O-])c1ccnc2c1CCc1cc(Cl)ccc1C2=C1CCN(C(=O)Cc2cccnc2)CC1 (centres unmarked) [Example 256] |  |
| 2.3 µM | COC(=O)CSc1ccnc2c1CCc1cc(Cl)ccc1C2=C1CCN(C(=O)Cc2cccnc2)CC1 [Example 257] |  |
| 10.8 µM | O=C(Cc1cccnc1)N1CCC(=C2c3ccc(Cl)cc3CCc3c(SCc4ccccc4)ccnc32)CC1 [Example 258] |  |
| 2.2 µM | Cn1nnnc1Sc1ccnc2c1CCc1cc(Cl)ccc1C2=C1CCN(C(=O)Cc2cccnc2)CC1 [Example 259] |  |
| 0.82 µM | O=C(Nc1cccnc1)N1CCC(=C2c3ccc(Cl)cc3CCc3c(On4nnc5ccccc54)ccnc32)CC1 [Example 262] |  |
| 9.8 µM | O=C(Nc1cccnc1)N1CCC(=C2c3ccc(Cl)cc3CCc3c(O)ccnc32)CC1 [Example 263] |  |
| 1.22 µM | CC(C)(C(=O)N1CCC(C2c3ccc(Cl)cc3C=Cc3cccnc32)CC1)c1cccnc1 (centres unmarked) [Example 268] |  |

| IC50 [1] | Structure (SMILES) | also measured |
| --- | --- | --- |
| 0.84 µM | O=C(Cc1cccnc1)N1CCC(C2c3ccc(Cl)cc3C=Cc3c(Cl)ccnc32)CC1 (centres unmarked) [Example 273] |  |
| 2.3 µM | O=C(Nc1cccnc1)N1CCC(=C2c3ccc(Cl)cc3C=Cc3cccnc32)CC1 [Example 277] |  |
| 7.7 µM | O=C1Cc2cc(Cl)ccc2C(=C2CCN(C(=O)Cc3cccnc3)CC2)c2ncccc21 [Example 279] |  |
| 23 µM | O=C(Cc1cccnc1)N1CCC(=C2c3ccc(Cl)cc3CC(O)c3cccnc32)CC1 (centres unmarked) [Example 280] |  |
| 4.5 µM | O=C(Cc1ccncc1)N1CCC(=C2c3ccc(Cl)cc3CC(O)c3cccnc32)CC1 (centres unmarked) [Example 282] |  |
| 4.3 µM | O=C(Cc1cccnc1)N1CCC(=C2c3ccc(Cl)cc3C(O)Cc3cccnc32)CC1 (centres unmarked) [Example 284] |  |
| 4.1 µM | O=C(C(=O)N1CCC(=C2c3ccc(Cl)cc3CCc3cccnc32)CC1)c1ccccc1 [Example 296] |  |
| 1.34 µM | CC(C)(C(=O)N1CCC(=C2c3ccc(Cl)cc3CCc3cccnc32)CC1)c1ccncc1 [Example 299] |  |
| 4.9 µM | O=C(Cc1cccnc1)N1CCC(=C2c3ccccc3CCc3cccnc32)CC1 [Example 323] |  |
| 0.062 µM and 0.073 µM | O=C(Cc1ccncc1)N1CCC(=C2c3ccc(Cl)cc3CCc3c2ncc(Br)c3Cl)CC1 [Example 356] |  |
| 0.59 µM | CC(C)(C(=O)N1CCC(=C2c3ccc(Cl)cc3CCc3cc(Br)cnc32)CC1)c1ccc[n+]([O-])c1 [Example 360] |  |
| 0.32 µM | CC(C)(C(=O)N1CCC(=C2c3ccc(Cl)cc3CCc3cc(Br)cnc32)CC1)c1ccncc1 [Example 361] |  |
| 1.16 µM | CCc1cc2c(cc1Cl)C=Cc1cccnc1C2C1CCN(C(=O)Cc2ccncc2)CC1 (centres unmarked) [Example 362] |  |
|  | O=C(c1c[nH]c2ccccc12)N1CCN(C2c3ccc(Cl)cc3CCc3cccnc32)CC1 (centres unmarked) [Example 368] | FPT inhibition (at 12 μM): 14 @12 μM % |
| 2.6 µM | N#CCC(=O)N1CCC(=C2c3ccc(Cl)cc3CCc3cc(Br)cnc32)CC1 [Example 400-A] |  |
|  | CCCCNc1c(Br)cnc2c1CCc1cc(Cl)ccc1C2=C1CCN(C(=O)Cc2ccncc2)CC1 [Example 400-M] | IC50 (enzyme inhibition): 0.9 µM |
| 1.7 µM | CC1(C2CCN(C(=O)Cc3cc[n+]([O-])cc3)CC2)c2ccc(Cl)cc2CCc2cccnc21 (centres unmarked) [Example 401-A] |  |
|  | N#Cc1cnc2c(c1)CCc1cc(Cl)ccc1C2=C1CCN(C(=O)Cc2ccncc2)CC1 [Example 406] | IC50 (enzyme inhibition): 1.4 µM |
| 0.052 µM | CC1(C2CCN(C(=O)Cc3ccc[n+]([O-])c3)CC2)c2ccc(Cl)cc2CCc2cc(Br)cnc21 (centres unmarked) [Example 410-C] |  |
| 2.2 µM | CC1(C2=CCN(C(=O)Cc3ccncc3)CC2)c2ccc(Cl)cc2CCc2cccnc21 (centres unmarked) [Example 410-F] |  |
| 7 µM | CN1CCN(CC(=O)N2CCC(=C3c4ccc(Cl)cc4CCc4cccnc43)CC2)CC1 [Example 410-H] |  |
| 1.9 µM | CN1CCN(CC(=O)N2CCC(=C3c4ccc(Cl)cc4CCc4cc(Br)cnc43)CC2)CC1 [Example 410-J] |  |

| Structure (SMILES) | IC50 [1] | also measured |
| --- | --- | --- |
| CC(=O)Nc1cnc2c(c1)CCc1cc(Cl)ccc1C2=C1CCN(C(=O)Cc2ccncc2)CC1 [Example 403] | 1000 µM |  |
| CS(=O)(=O)Nc1cnc2c(c1)CCc1cc(Cl)ccc1C2=C1CCN(C(=O)Cc2ccncc2)CC1 [Example 404] | 4.6 µM |  |
